Test results taken from patent publication US20120165319A1, “INHIBITORS OF INTERLEUKIN-1 BETA CONVERTING ENZYME” (VERTEX PHARMACEUTICALS INCORPORATED, priority 1995, published 2012).
Where two headings read alike, the source gives them in different places.

Tests used:
[1] = target: T1, ICE (Homo sapiens, UniProt P29466); experiment: Enzyme assay with UV-visible substrate (visible ICE assay, Succinyl-Tyr-Val-Ala-Asp-pNitroanilide); format: biochemical
T1 sequence (P29466 120-297 limits assumed): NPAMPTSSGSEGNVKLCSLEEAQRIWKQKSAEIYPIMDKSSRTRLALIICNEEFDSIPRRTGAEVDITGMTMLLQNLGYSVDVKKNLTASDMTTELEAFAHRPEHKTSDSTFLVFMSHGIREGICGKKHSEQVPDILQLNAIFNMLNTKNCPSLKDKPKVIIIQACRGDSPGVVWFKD
T1 sequence (P29466 317-404 limits assumed): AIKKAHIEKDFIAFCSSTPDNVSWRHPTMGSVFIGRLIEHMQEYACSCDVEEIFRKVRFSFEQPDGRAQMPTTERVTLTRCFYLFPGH
In short: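 Colorimetric caspase-1 activity: 15 min enzyme-inhibitor preincubation (RT), then Suc-Tyr-Val-Ala-Asp-pNA; 405-603 nm kinetics, 20 min, 37° C. Ki from rate fitting.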

[2] = Pharmacokinetic studies in the mouse (i.v. clearance, plasma levels); format: in vivo; settings: CD-1, plasma, iv, 25 mg/kg, mouse
In short: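 Male CD-1 mice (26-31 g) given 25 mg/kg i.v. via tail vein in 0.02M Tris (2.5 mg/ml), groups of 5 per timepoint from 2 to 120 min. Heparinized plasma deproteinated (perchloric acid or acetonitrile) and analysed by reverse-phase HPLC with UV or MS detection against plasma-spiked calibration (0.5 to 50 μg/ml).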

[3] = In vivo rat clearance assay; settings: plasma, iv
In short: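 Rats cannulated a day beforehand received 10–20 mg/kg by intravenous jugular dosing in propylene glycol/saline with 100 mM sodium bicarbonate. Carotid blood was sampled from 0 to 90 min, and plasma was extracted with acetonitrile/0.1% TFA for HPLC quantification. Clearance from non-linear regression pharmacokinetic analysis.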

[4] = test system: IL-1β production, LPS-challenged mice; experiment: In vivo acute assay for efficacy as anti-inflammatory agent: LPS-induced IL-1β production in mice; parameters: species or system mouse; settings: Mus musculus, po, LPS challenged mice, compound PO, 50 mg/kg, read-out: percent inhibition of IL-1β production
In short: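 CD1 mice (n=6) were challenged with LPS 20 mg/kg IP and given compound IP in olive oil:DMSO:ethanol (90:5:5) 1 h after LPS, or at the time of challenge for some analogs. Blood was taken 7 h after LPS and serum IL-1β was measured by ELISA. Oral gavage at 50 mg/kg was also tested.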

[5] = 0 h, administered 0 h relative to time of LPS challenge
[6] = 2 h, administered −2 h relative to time of LPS challenge

Structure (SMILES)	Ki ([1]; Table 17) [nM]	clearance ([2]; Table 17) [mL/min/kg]	clearance ([3]; Table 17) [mL/min/kg]	melting point	Ki ([1]; Table 5) [nM]	clearance [2] [mL/min/kg]	clearance ([3]; 10-20 mg/kg) [mL/min/kg]	inhibition at 50 mg/kg [4, 5] [%]	inhibition at 50 mg/kg ([4]; 1 h, administered +1 h relative to time of LPS challenge) [%]	inhibition at 50 mg/kg [4, 6] [%]
O=C1C[C@H](NC(=O)[C@@H]2CCCN3C(=O)CC[C@H](NC(=O)c4cccc5ccccc45)C(=O)N23)C(OCc2ccccc2)O1 (stereo partly drawn) [Compound 213v, [1S,9S(2RS,3S)]N-(2-Benzyloxy-5-oxotetrahydrofuran-3-yl)-6,10-dioxo-9-(naphth-1-oylamino)-1,2,3,4,7,8,9,10-octahydro-6H-pyridazino[1,2-a][1,2]diazepine-1-carboxamide]	0.5	41	23	121 to 127 °C						
O=C(O)C[C@H](NC(=O)[C@@H]1CCCN2C(=O)CC[C@H](NC(=O)c3ccccc3)C(=O)N12)C(=O)c1nc2cc(Cl)cc(Cl)c2o1 [Compound 223e, [3S(1S,9S)]3-(9-Benzoylamino-6,10-dioxo-1,2,3,4,7,8,9,10-octahydro-6H-pyridazino-[1,2-a][1,2]diazepine-1-carboxamido)-4-(5,7-dichlorobenzoxazol-2-yl)-4-oxobutanoic acid]				167 to 180 °C	1.6	89				
O=C(O)C[C@H](NC(=O)[C@@H]1CCCN2C(=O)CC[C@H](NC(=O)c3ccccc3)C(=O)N12)C(=O)CSCc1ccccc1Cl [Compound 226e, [3S(1S,9S)]3-(9-Benzoylamino-6,10-dioxo-1,2,3,4,7,8,9,10-octahydro-6H-pyridazino[1,2-a][1,2]-diazepine-1-carboxamido)-5-(2-chlorophenyl)methylthio-4-oxopentanoic acid]				95 to 100 °C	15	109				
O=C[C@H](CC(=O)O)NC(=O)[C@@H]1CCCN2CCC[C@H](NC(=O)c3ccccc3)C(=O)N12 [Compound 246]				110 to 115 °C	12	31				
COC(=O)N[C@H]1CCC(=O)N2CCC[C@@H](C(=O)N[C@@H](CC(=O)O)C(=O)COC(=O)c3c(C)cccc3C)N2C1=O [Compound 285, [3S(1S,9S)]5-(2,6-Dimethylbenzoyloxy)-3-[6,10-dioxo-9-(methoxycarbonyl)amino-1,2,3,4,7,8,9,10-octahydro-6H-pyridazino[1,2-a][1,2]diazepine-1-carboxamido]-4-oxopentanoic acid]				110 °C (dec.)		130	50			
Cc1ccccc1C(=O)N[C@H]1CCC(=O)N2CCC[C@@H](C(=O)N[C@H](C=O)CC(=O)O)N2C1=O [Compound 404]				156 to 159 °C	2.9	64	24	6	56	55
O=C[C@H](CC(=O)O)NC(=O)[C@@H]1CCCN2C(=O)CC[C@H](NC(=O)c3cccc4ccccc34)C(=O)N12 [Compound 408, [3S(1S,9S)]3-[6,10-Dioxo-9-(naphth-1-oylamino)-1,2,3,4,7,8,9,10-octahydro-6H-pyridazino[1,2-a][1,2]diazepine-1-carboxamido]-4-oxobutanoic acid]				157 to 165 °C	0.5	41	23			
O=C[C@H](CC(=O)O)NC(=O)[C@@H]1CCCN2C(=O)CC[C@H](NC(=O)c3ccc4c(c3)OCO4)C(=O)N12 [Compound 415, [3S(1S,9S)]3-[6,10-Dioxo-9-(3,4-methylenedioxybenzoylamino)-1,2,3,4,7,8,9,10-octahydro-6H-pyridazino[1,2-a][1,2]diazepine-1-carboxamido]-4-oxobutanoic acid]				158 to 162 °C	2.5	26	18			
COc1cc(C(=O)N[C@H]2CCC(=O)N3CCC[C@@H](C(=O)N[C@H](C=O)CC(=O)O)N3C2=O)cc(OC)c1OC [Compound 417, [3S(1S,9S)]3-[6,10-Dioxo-1,2,3,4,7,8,9,10-octahydro-9-(3,4,5-trimethoxybenzoylamino)-6H-pyridazino[1,2-a][1,2]diazepine-1-carboxamido]-4-oxobutanoic acid]				145 to 155 °C	8	33	22			
CC(=O)Nc1cccc(C(=O)N[C@H]2CCC(=O)N3CCC[C@@H](C(=O)N[C@H](C=O)CC(=O)O)N3C2=O)c1 [Compound 450, [3S(1S,9S)]3-{9-[(3-Acetamido)benzamido]-6,10-dioxo-1,2,3,4,7,8,9,10-octahydro-6H-pyridazino[1,2-a][1,2]diazepine-1-carboxamido}-4-oxobutanoic acid]				175 to 179 °C	5	18	12	35		0
O=C[C@H](CC(=O)O)NC(=O)[C@@H]1CCCN2C(=O)CC[C@H](NC(=O)c3cc4ccccc4[nH]3)C(=O)N12 [Compound 475, [3S(1S,9S)]3-[6,10-Dioxo-9-(indol-2-oylamino)-1,2,3,4,7,8,9,10-octahydro-6H-pyridazino[1,2-a][1,2]diazepine-1-carboxamido]-4-oxobutanoic acid]				150 °C	5.5	31	21	15		0
CC(C)CC(=O)Nc1ccc(C(=O)N[C@H]2CCC(=O)N3CCC[C@@H](C(=O)N[C@H](C=O)CC(=O)O)N3C2=O)cc1 [Compound 487, [3S(1S,9S)]3-{6,10-Dioxo-9-[4-(3-methylbutan-1-oylamino)benzamido]-1,2,3,4,7,8,9,10-octahydro-6H-pyridazino[1,2-a][1,2]diazepine-1-carboxamido}-4-oxobutanoic acid]				176 to 180 °C	2.4		20	20		17
COC(=O)N[C@H]1CCC(=O)N2CCC[C@@H](C(=O)N[C@@H](CC(=O)O)C(=O)CSc3ncccn3)N2C1=O [Compound 511c, [3S(1S,9S)]3-[6,10-Dioxo-9-(methoxycarbonyl)-amino-1,2,3,4,7,8,9,10-octahydro-6H-pyridazino[1,2-a][1,2]diazepine-1-carboxamido]-5-(2-mercaptopyrimidine)-4-oxopentanoic acid]	730	78	40	105 °C (dec.)						
O=C[C@H](CC(=O)O)NC(=O)[C@@H]1CCCN2C(=O)CCN(NC(=O)c3ccc4c(c3)OCO4)C(=O)N12 [Compound 1015, [3S(4S)]3-[6,10-Dioxo-7-(3,4-methylenedioxybenzoylamino)-1,2,3,4,7,8,9,10-octahydro-6H-pyridazino[1,2-a][1,2,4]triazepine-4-carboxamido]-4-oxobutanoic acid]				170 to 175 °C	40		23	28		15
